The first assay deals with human IRAK4 FL (Full Length) (Homo sapiens (Human), UniProt Q9NWZ3). Kind of assay: IRAK4 Enzymatic DELFIA Assay, Protocol A. Format: biochemical.
human IRAK4 FL (Full Length), sequence (Q9NWZ3 whole entry): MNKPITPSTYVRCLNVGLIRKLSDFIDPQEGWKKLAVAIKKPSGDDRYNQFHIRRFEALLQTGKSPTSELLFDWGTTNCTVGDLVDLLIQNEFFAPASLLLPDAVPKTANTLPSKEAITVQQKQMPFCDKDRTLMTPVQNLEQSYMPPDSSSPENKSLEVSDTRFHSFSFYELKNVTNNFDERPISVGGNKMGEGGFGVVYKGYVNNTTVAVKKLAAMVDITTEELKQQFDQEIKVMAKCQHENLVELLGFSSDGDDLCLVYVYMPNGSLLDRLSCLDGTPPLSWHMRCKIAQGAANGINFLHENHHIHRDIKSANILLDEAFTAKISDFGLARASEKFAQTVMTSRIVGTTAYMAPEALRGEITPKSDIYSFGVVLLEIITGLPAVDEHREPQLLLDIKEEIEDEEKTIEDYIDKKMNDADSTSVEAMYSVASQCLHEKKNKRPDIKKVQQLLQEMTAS
Conditions: not given
Usually IC50 stands for the concentration that inhibits the measured activity by half. `CC(C)Oc1cc2c(OC[C@@H]3CCC(=O)N3)ncc(CN)c2cc1C(N)=O` [Example 195, 4-(aminomethyl)-1-{[(2S)-5-oxopyrrolidin-2-yl]methoxy}-7-(propan-2-yloxy)isoquinoline-6-carboxamide] had an IC50 of 3400 nM. The same measure, in the same setting: the same measure for `CC(C)Oc1cc2c(OC[C@@H]3CCC(=O)N3)ncc(-c3cccc(=O)[nH]3)c2cc1C(N)=O` [Example 378, 4-(6-oxo-1,6-dihydropyridin-2-yl)-1-{[(2S)-5-oxopyrrolidin-2-yl]methoxy}-7-(propan-2-yloxy)isoquinoline-6-carboxamide]: 59 nM.

Staying with this assay, now noted: human IRAK4 FL, 0.6 mM ATP (KM); read-out: IRAK4 DELFIA Protocol A IC50.
Consider `CC(C)Oc1cc2c(OC[C@@H]3C[C@@](O)(CC(F)(F)F)C(=O)N3)nccc2cc1C(N)=O` [Example 182, 1-{[(2S,4R)-4-hydroxy-5-oxo-4-(2,2,2-trifluoroethyl)pyrrolidin-2-yl]methoxy}-7-(propan-2-yloxy)isoquinoline-6-carboxamide], for which the IC50 was found to be 1050 nM. On the same count and under the same terms, the same measure for `CC(C)Oc1cc2c(OC[C@@H]3C[C@H](C4(O)COC4)C(=O)N3)nccc2cc1C(N)=O` [Example 192, 1-{[(2S,4R)-4-(3-hydroxyoxetan-3-yl)-5-oxopyrrolidin-2-yl]methoxy}-7-(propan-2-yloxy)isoquinoline-6-carboxamide]: 284 nM; for `CC(C)(C)Oc1cc2c(OC[C@@H]3CCC(=O)N3)nccc2cc1C(N)=O` [Example 200, 7-tert-butoxy-1-{[(2S)-5-oxopyrrolidin-2-yl]methoxy}isoquinoline-6-carboxamide]: 697 nM.

As to `CC(C)Oc1cc2c(OC[C@H]3NC(=O)[C@@H]4CN(C)C[C@H]34)nccc2cc1C(N)=O` [Example 213, 1-{[(1S,3aS,6aR)-5-methyl-3-oxooctahydropyrrolo[3,4-c]pyrrol-1-yl]methoxy}-7-(propan-2-yloxy)isoquinoline-6-carboxamide], the IC50 was found to be 1420 nM. With `NC(=O)c1cc2ccnc(OC[C@@H]3CCC(=O)N3)c2cc1OC(F)(F)F` [Example 178, 1-{[(2S)-5-oxopyrrolidin-2-yl]methoxy}-7-(trifluoromethoxy)isoquinoline-6-carboxamide], the IC50 worked out at 1690 nM.

Regarding `CC(C)Oc1cc2c(OC[C@@H]3CCC(=O)N3)ncc(-c3ncc(Cl)cn3)c2cc1C(N)=O` [Example 377, 4-(5-chloropyrimidin-2-yl)-1-{[(2S)-5-oxopyrrolidin-2-yl]methoxy}-7-(propan-2-yloxy)isoquinoline-6-carboxamide], the IC50 was determined as 72 nM. As to `CC(C)Oc1cc2c(OC[C@H]3NC(=O)[C@@H]4CNC[C@H]34)nccc2cc1C(N)=O` [Example 226, 1-{[(1S,3aS,6aR)-3-oxooctahydropyrrolo[3,4-c]pyrrol-1-yl]methoxy}-7-(propan-2-yloxy)isoquinoline-6-carboxamide], the IC50 is 222 nM. Same read-out and setting: the same measure for `CC(C)Oc1cc2c(OC[C@H]3NC(=O)C[C@@H]3N)nccc2cc1C(N)=O` [Example 149, 1-{[(2S,3S)-3-amino-5-oxopyrrolidin-2-yl]methoxy}-7-(propan-2-yloxy)isoquinoline-6-carboxamide]: 105 nM; for `Cc1cnc(OC[C@@H]2CCC(=O)N2)c2cc(OC(C)C)c(C(N)=O)cc12` [Example 05, 4-methyl-1-{[(2S)-5-oxopyrrolidin-2-yl]methoxy}-7-(propan-2-yloxy)isoquinoline-6-carboxamide]: 84 nM. The same measure, in the same setting: the result for `COc1cc2c(OCC3(C)COCC(=O)N3)nccc2cc1C(N)=O` (centres unmarked) [Example 265, 7-methoxy-1-[(3-methyl-5-oxomorpholin-3-yl)methoxy]isoquinoline-6-carboxamide] reads 1540 nM; that for `CC(C)Oc1cc2c(OCC3NC(=O)C4CCCCC34)nccc2cc1C(N)=O` (centres unmarked) [Example 118, 1-[(3-oxooctahydro-1H-isoindol-1-yl)methoxy]-7-(propan-2-yloxy)isoquinoline-6-carboxamide], 162 nM. On the same count and under the same terms, the result for `CC(C)Oc1cc2c(OC[C@@H]3C[C@H](CO)C(=O)N3)nccc2cc1C(N)=O` [Example 165, 1-{[(2S,4R)-4-(hydroxymethyl)-5-oxopyrrolidin-2-yl]methoxy}-7-(propan-2-yloxy)isoquinoline-6-carboxamide] reads 541 nM; that for `CC(C)Oc1cc2c(OC[C@@H]3C[C@@](F)(C(C)(C)O)C(=O)N3)nccc2cc1C(N)=O` [Example 171, 1-{[(2S,4R)-4-fluoro-4-(2-hydroxypropan-2-yl)-5-oxopyrrolidin-2-yl]methoxy}-7-(propan-2-yloxy)isoquinoline-6-carboxamide], 101 nM; that for `CC(C)Oc1cc2c(OCC3CCC(=O)NC3)nccc2cc1C(N)=O` (centres unmarked) [Example 142, 1-[(6-oxopiperidin-3-yl)methoxy]-7-(propan-2-yloxy)isoquinoline-6-carboxamide], 1220 nM. On to `COc1cc2c(OC[C@H]3NC(=O)CC3(C)C)nccc2cc1C(N)=O` [Example 221, 1-{[(2S)-3,3-dimethyl-5-oxopyrrolidin-2-yl]methoxy}-7-methoxyisoquinoline-6-carboxamide], for which the IC50 was determined as 54 nM. On the same count and under the same terms, the same measure for `CC(C)Oc1cc2c(O[C@@H]3CCC[C@]34CCC(=O)N4)nccc2cc1C(N)=O` [Example 186, 1-{[(5S,6R)-2-oxo-1-azaspiro[4.4]non-6-yl]oxy}-7-(propan-2-yloxy)isoquinoline-6-carboxamide]: 303 nM; for `Cc1nccc(-c2cnc(OC[C@@H]3CCC(=O)N3)c3cc(OC(C)C)c(C(N)=O)cc23)n1` [Example 379, 4-(2-methylpyrimidin-4-yl)-1-{[(2S)-5-oxopyrrolidin-2-yl]methoxy}-7-(propan-2-yloxy)isoquinoline-6-carboxamide]: 503 nM. The same measure, in the same setting: the result for `CC(C)Oc1cc2c(OC[C@@H]3CN(C)C(=O)N3)nccc2cc1C(N)=O` [Example 185, 1-{[(4S)-1-methyl-2-oxoimidazolidin-4-yl]methoxy}-7-(propan-2-yloxy)isoquinoline-6-carboxamide] reads 116 nM; that for `NC(=O)c1cc2ccnc(OC[C@@H]3CCC(=O)N3)c2cc1OCC1CC1` [Example 204, 7-(cyclopropylmethoxy)-1-{[(2S)-5-oxopyrrolidin-2-yl]methoxy}isoquinoline-6-carboxamide], 2060 nM. The same measure, in the same setting: the result for `CC(C)Oc1cc2c(OC[C@@H]3CCN(C(=O)CC#N)C3)ccnc2cc1C(N)=O` [Example 23, 4-{[(3R)-1-(cyanoacetyl)pyrrolidin-3-yl]methoxy}-6-(propan-2-yloxy)quinoline-7-carboxamide] reads 656 nM; that for `CC(C)Oc1cc2c(OC[C@@H]3C[C@@](C)(F)C(=O)N3)nccc2cc1C(N)=O` [Example 133, 1-{[(2S,4R)-4-fluoro-4-methyl-5-oxopyrrolidin-2-yl]methoxy}-7-(propan-2-yloxy)isoquinoline-6-carboxamide], 175 nM; that for `COc1cc2c(OC[C@H]3NC(=O)[C@@H](C)[C@@H]3CF)nccc2cc1C(N)=O` [Example 254, 1-{[(2S,3S,4S)-3-(fluoromethyl)-4-methyl-5-oxopyrrolidin-2-yl]methoxy}-7-methoxyisoquinoline-6-carboxamide], 2950 nM. As for `CCOc1cc2c(OC[C@H]3NC(=O)[C@@H]4C[C@H]34)ccnc2cc1C(N)=O` [Example 280, 6-ethoxy-4-{[(1S,2S,5R)-4-oxo-3-azabicyclo[3.1.0]hex-2-yl]methoxy}quinoline-7-carboxamide], the IC50 is 3790 nM. On the same count and under the same terms, the same measure for `COc1cc2c(OC[C@H]3NC(=O)C[C@@H]3CO)nccc2cc1C(N)=O` [Example 214, 1-{[(2S,3S)-3-(hydroxymethyl)-5-oxopyrrolidin-2-yl]methoxy}-7-methoxyisoquinoline-6-carboxamide]: 215 nM; for `COc1cc2c(OC[C@H]3NC(=O)[C@@H]4[C@@H](C)[C@@H]43)c(Cl)cnc2cc1C(N)=O` [Example 321, 3-chloro-6-methoxy-4-{[(1S,2S,5R)-6-methyl-4-oxo-3-azabicyclo[3.1.0]hex-2-yl]methoxy}quinoline-7-carboxamide]: 4190 nM. On the same count and under the same terms, the result for `CC(C)Oc1cc2c(OCC3COCC(=O)N3)nccc2cc1C(N)=O` (centres unmarked) [Example 116, 1-[(5-oxomorpholin-3-yl)methoxy]-7-(propan-2-yloxy)isoquinoline-6-carboxamide] reads 146 nM; that for `CC(C)Oc1cc2c(OCC3CN(C(=O)CC#N)C3)nccc2cc1C(N)=O` [Example 69, 1-{[1-(cyanoacetyl)azetidin-3-yl]methoxy}-7-(propan-2-yloxy)isoquinoline-6-carboxamide], 29 nM; that for `CC(C)Oc1cc2c(OC[C@@]3(CO)CCC(=O)N3)nccc2cc1C(N)=O` [Example 153, 1-{[(2S)-2-(hydroxymethyl)-5-oxopyrrolidin-2-yl]methoxy}-7-(propan-2-yloxy)isoquinoline-6-carboxamide], 1480 nM. Same read-out and setting: the same measure for `COc1cc2c(OC[C@H]3NC(=O)[C@@H]4[C@H](CO)[C@@H]43)nccc2cc1C(N)=O` [Example 328, 1-{[(1S,2S,5S)-6-(hydroxymethyl)-4-oxo-3-azabicyclo[3.1.0]hex-2-yl]methoxy}-7-methoxyisoquinoline-6-carboxamide]: 93 nM. As to `CC(C)Oc1cc2c(OC[C@@H]3C[C@H](C(C)(C)O)C(=O)N3)nccc2cc1C(N)=O` [Example 137, 1-{[(2S,4R)-4-(2-hydroxypropan-2-yl)-5-oxopyrrolidin-2-yl]methoxy}-7-(propan-2-yloxy)isoquinoline-6-carboxamide], the IC50 is 98 nM.

On to `CC(C)Oc1cc2c(OC[C@]3(C)CCC(=O)N3)nccc2cc1C(N)=O` [Example 126, 1-{[(2S)-2-methyl-5-oxopyrrolidin-2-yl]methoxy}-7-(propan-2-yloxy)isoquinoline-6-carboxamide], for which the IC50 is 42 nM.

Take `CC(C)Oc1c(C(N)=O)cc2ccnc(OC[C@@H]3CCC(=O)N3)c2c1F` [Example 176, 8-fluoro-1-{[(2S)-5-oxopyrrolidin-2-yl]methoxy}-7-(propan-2-yloxy)isoquinoline-6-carboxamide]: the IC50 amounted to 695 nM. Same read-out and setting: the result for `Cc1ccnc(-c2cnc(OC[C@@H]3CCC(=O)N3)c3cc(OC(C)C)c(C(N)=O)cc23)n1` [Example 376, 4-(4-methylpyrimidin-2-yl)-1-{[(2S)-5-oxopyrrolidin-2-yl]methoxy}-7-(propan-2-yloxy)isoquinoline-6-carboxamide] reads 740 nM.

The record behind these values is US10329302B2, “Bicyclic-fused heteroaryl or aryl compounds” (Pfizer Inc., priority 2014, dated 2019).
